# According to ChEMBL document CHEMBL1201862, “PubChem BioAssay data set” (2004):
#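 Assay format: 96-well plates, 48-hour exposure. GI50 is the concentration that inhibits growth by half.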 Activity calls are given as the source filed them. Cut-off read from the data, not from the text of the source: active = GI50 up to about 1.1 µM and inactive = higher.
# How the values were obtained:
# Test in all cases: inhibition of tumour cell growth, NCI panel, 48 h
# HCT-116 = system: HCT-116
# K562 = system: K562
# M14 = system: M14
# MCF7 = system: MCF7
# NCI-H23 = system: NCI-H23
# PC-3 = system: PC-3
# RPMI-8226 = system: RPMI-8226
# RXF 393 = system: RXF 393
# SF-295 = system: SF-295
# SF-539 = system: SF-539
# SK-MEL-28 = system: SK-MEL-28
# SK-MEL-5 = system: SK-MEL-5
# SK-OV-3 = system: SK-OV-3
# SR = system: SR
# T47D = system: T47D
# UACC-257 = system: UACC-257
# UO-31 = system: UO-31
# HOP-92 = system: HOP-92
# A498 = system: A498
SMILES,GI50 (HCT-116),GI50 (K562),GI50 (M14),GI50 (MCF7),GI50 (NCI-H23),GI50 (PC-3),GI50 (RPMI-8226),GI50 (RXF 393),GI50 (SF-295),GI50 (SF-539),GI50 (SK-MEL-28),GI50 (SK-MEL-5),GI50 (SK-OV-3),GI50 (SR),GI50 (T47D),GI50 (UACC-257),GI50 (UO-31),GI50 (HOP-92),GI50 (A498)
O=C1/C(=C/c2ccc([N+](=O)[O-])cc2)Oc2cc(O)ccc21,26.2 µM (inactive),17.9 µM (inactive),43.1 µM (inactive),27.2 µM (inactive),42.1 µM (inactive),29.3 µM (inactive),22.5 µM (inactive),45 µM (inactive),37.8 µM (inactive),23.4 µM (inactive),41 µM (inactive),21 µM (inactive),25.1 µM (inactive),16.9 µM (inactive),28.6 µM (inactive),37.7 µM (inactive),17.7 µM (inactive),,
COc1cc(C2C3=C(COC3=O)Oc3cc4c(cc32)OCO4)cc(OC)c1O (stereo not given),0.0103 µM (active),< 0.01 µM (active),< 0.0112 µM (active),< 0.01 µM (active),0.465 µM (active),< 0.01 µM (active),< 0.0232 µM (active),< 0.01 µM (active),< 0.01 µM (active),< 0.01 µM (active),< 0.01 µM (active),< 0.01 µM (active),< 0.012 µM (active),< 0.01 µM (active),0.0157 µM (active),,0.0592 µM (active),,
CC1(C)O[C@@H](CP(c2ccc3ccccc3c2)c2ccc3ccccc3c2)[C@H](CP(c2ccc3ccccc3c2)c2ccc3ccccc3c2)O1,> 100 µM (inactive),77.1 µM (inactive),> 100 µM (inactive),72.3 µM (inactive),> 100 µM (inactive),53.5 µM (inactive),,> 100 µM (inactive),> 100 µM (inactive),,> 100 µM (inactive),73.5 µM (inactive),> 100 µM (inactive),77.8 µM (inactive),78.2 µM (inactive),> 100 µM (inactive),> 100 µM (inactive),,
O=C(c1ccccc1)c1ccc2[nH]c(-c3c(Cl)c(Cl)c(Cl)c(Cl)c3C(=O)N/N=C/c3ccc(Cl)cc3)nc2c1,44.6 µM (inactive),23.7 µM (inactive),30.1 µM (inactive),20.6 µM (inactive),30.1 µM (inactive),37 µM (inactive),19.3 µM (inactive),22.5 µM (inactive),29 µM (inactive),64.9 µM (inactive),33 µM (inactive),17.2 µM (inactive),41.1 µM (inactive),28.2 µM (inactive),18.3 µM (inactive),43.3 µM (inactive),42.6 µM (inactive),43.6 µM (inactive),
S=C1NC2=C(COc3ccccc32)C(c2ccc(Cl)cc2)N1 (stereo not given),15.5 µM (inactive),15.6 µM (inactive),18.7 µM (inactive),19.1 µM (inactive),21.7 µM (inactive),13.4 µM (inactive),5.78 µM (inactive),15.5 µM (inactive),13.8 µM (inactive),16.6 µM (inactive),21.9 µM (inactive),15 µM (inactive),19.6 µM (inactive),,18.2 µM (inactive),21.2 µM (inactive),18.4 µM (inactive),> 10 µM (inactive),18.1 µM (inactive)
CC1(C)/C(=N\NC(N)=O)C2CCC1C2 (stereo not given),> 100 µM (inactive),> 100 µM (inactive),> 100 µM (inactive),> 100 µM (inactive),> 100 µM (inactive),> 100 µM (inactive),> 100 µM (inactive),,> 100 µM (inactive),,> 100 µM (inactive),> 100 µM (inactive),> 100 µM (inactive),> 100 µM (inactive),> 100 µM (inactive),> 100 µM (inactive),> 100 µM (inactive),> 100 µM (inactive),
